Assay results reported in the supplement of paper PMC10307832.

What was measured:
Assay in all cases: relative viability (nuclei count vs DMSO), 5 days (fraction); higher = more cells survive
[1] = compound: CO[C@@H]1[C@H](N(C)C(=O)c2ccccc2)C[C@H]2O[C@]1(C)n1c3ccccc3c3c4c(c5c6ccccc6n2c5c31)C(=O)NC4 [Midostaurin] + O=C(c1cc(Cc2n[nH]c(=O)c3ccccc23)ccc1F)N1CCN(C(=O)C2CC2)CC1 [Olaparib] (partner 8 µM)
Outline: (§1)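 Lung cancer cell lines were seeded in 1536-well plates and dosed by pin tool the next day, with either a single drug or a fixed anchor-drug dose combined with five library-drug doses (not always all listed) spaced in √10 steps. Five days later, one step fixed the cells and stained their nuclei (final 0.05% Triton X-100, 1% formaldehyde, 1 ug/ml Hoechst), and nuclei were counted on 4× images. Relative viability is the nuclei count in treated wells divided by the count in vehicle wells, and each value is the median of duplicate plates.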

[2] = compound: CO[C@@H]1[C@H](N(C)C(=O)c2ccccc2)C[C@H]2O[C@]1(C)n1c3ccccc3c3c4c(c5c6ccccc6n2c5c31)C(=O)NC4 [Midostaurin] + CS(=O)(=O)CCNCc1ccc(-c2ccc3ncnc(Nc4ccc(OCc5cccc(F)c5)c(Cl)c4)c3c2)o1 [Lapatinib] (partner 2 µM)
Outline: as §1

[3] = compound: COc1cc(-c2nn([C@H]3CC[C@H](N4CCN(C(C)=O)CC4)CC3)c3ncnc(N)c23)ccc1NC(=O)c1cc2ccccc2n1C + COc1cccc2cc(-c3nc([C@H]4CC[C@H](C(=O)O)CC4)n4ncnc(N)c34)[nH]c12 [OSI-027] (partner 0.5 µM)
Outline: as §1

[4] = compound: COc1cc(-c2nn([C@H]3CC[C@H](N4CCN(C(C)=O)CC4)CC3)c3ncnc(N)c23)ccc1NC(=O)c1cc2ccccc2n1C + Cc1cc(Nc2cc(N3CCN(C)CC3)nc(Sc3ccc(NC(=O)C4CC4)cc3)n2)n[nH]1 [Tozasertib] (partner 0.1 µM)
Outline: as §1

[5] = compound: COc1cc(-c2nn([C@H]3CC[C@H](N4CCN(C(C)=O)CC4)CC3)c3ncnc(N)c23)ccc1NC(=O)c1cc2ccccc2n1C + Nc1ncn([C@H]2C[C@H](O)[C@@H](CO)O2)c(=O)n1 [Decitabine] (partner 2 µM)
Outline: as §1

| Cell Line | relative viability ([1]; first compound 0.01 µM) | relative viability ([1]; first compound 0.03162 µM) | relative viability ([1]; first compound 0.1 µM) | relative viability ([1]; first compound 0.3162 µM) | relative viability ([2]; first compound 0.01 µM) | relative viability ([2]; first compound 0.03162 µM) | relative viability ([2]; first compound 0.1 µM) | relative viability ([2]; first compound 0.3162 µM) | relative viability ([3]; first compound 0.0128 µM) | relative viability ([3]; first compound 0.04048 µM) | relative viability ([3]; first compound 0.128 µM) | relative viability ([3]; first compound 1.28 µM) | relative viability ([4]; first compound 0.0128 µM) | relative viability ([4]; first compound 0.04048 µM) | relative viability ([4]; first compound 0.128 µM) | relative viability ([4]; first compound 1.28 µM) | relative viability ([5]; first compound 0.0128 µM) | relative viability ([5]; first compound 0.04048 µM) | relative viability ([5]; first compound 0.128 µM) | relative viability ([5]; first compound 1.28 µM) |
| --- | --- | --- | --- | --- | --- | --- | --- | --- | --- | --- | --- | --- | --- | --- | --- | --- | --- | --- | --- | --- |
| NCI-H1755 | 0.864 | 0.884 | 0.783 | 0.779 | 1.03 | 0.976 | 0.903 | 0.917 | 0.829 | 0.644 | 0.676 | 0.662 | 0.617 | 0.604 | 0.534 | 0.546 | 0.768 | 0.738 | 0.699 | 0.611 |
| NCI-H1793 | 0.923 | 0.804 | 0.644 | 0.431 | 0.971 | 0.715 | 0.767 | 0.75 | 0.369 | 0.177 | 0.237 | 0.186 | 0.367 | 0.343 | 0.228 | 0.126 | 0.55 | 0.468 | 0.509 | 0.364 |
| NCI-H1915 | 0.257 | 0.249 | 0.243 | 0.224 | 0.865 | 0.972 | 0.956 | 1.04 | 0.677 | 0.404 | 0.585 | 0.481 | 0.443 | 0.44 | 0.384 | 0.317 | 0.293 | 0.244 | 0.264 | 0.262 |
| NCI-H1944 | 0.388 | 0.433 | 0.402 | 0.429 | 0.783 | 0.794 | 0.898 | 0.977 | 0.457 | 0.332 | 0.412 | 0.353 | 0.265 | 0.257 | 0.24 | 0.196 | 0.483 | 0.371 | 0.456 | 0.451 |
| NCI-H1975 | 0.733 | 0.677 | 0.701 | 0.466 | 0.82 | 0.893 | 0.871 | 0.665 | 0.676 | 0.669 | 0.611 | 0.277 | 0.868 | 0.896 | 0.528 | 0.159 | 0.406 | 0.33 | 0.376 | 0.235 |
| NCI-H1993 | 1.08 | 0.791 | 1.01 | 1.11 | 0.831 | 0.805 | 0.809 | 0.79 | 0.52 | 0.575 | 0.552 | 0.431 | 0.568 | 0.534 | 0.56 | 0.546 | 0.632 | 0.575 | 0.681 | 0.617 |
| NCI-H2009 | 0.696 | 0.668 | 0.611 | 0.512 | 0.811 | 0.823 | 0.902 | 0.861 | 0.618 | 0.463 | 0.635 | 0.54 | 0.743 | 0.734 | 0.681 | 0.606 | 0.352 | 0.386 | 0.33 | 0.357 |
| NCI-H2023 | 0.494 | 0.505 | 0.396 | 0.246 | 0.851 | 0.621 | 0.777 | 0.555 | 0.409 | 0.4 | 0.423 | 0.28 | 0.381 | 0.309 | 0.179 | 0.199 | 0.219 | 0.219 | 0.218 | 0.228 |
